Laboratory results: patent US9486506B2 (Novo Nordisk A/S, priority 2011, dated 2016)
Numbered stars: 1 amine (or outer) side, 2 acyl side, 3 side chain; on linkers, the order of the positions; unused ones are H or OH. Side chains are listed from the residue outwards. Peptide text beside a SMILES is read from it. * marks the point of attachment. C20 diacid = O=C(O)CCCCCCCCCCCCCCCCCCC(=O)*; C18 diacid = O=C(O)CCCCCCCCCCCCCCCCC(=O)*; γGlu = O=C(O)[C@H](CCC(=O)[*:2])N[*:1]; AEEA = NCCOCCOCC(=O)O

Target: T1, glucagon receptor (Homo sapiens, UniProt P47871)
T1 construct: expressed in transfected cells
Test: Assay (I) Glucagon activity (cAMP biosensor, FLIPR)
Assay type: cell-based
Protocol: The cells (14000 per well) were incubated (37° C., 5% CO2) overnight in 384-well plates. Next day the cells were loaded with a calcium responsive dye that only distributed into the cytoplasm. Probenecid, an inhibitor of the organic anion transporter, was added to prevent the dye from leaving the cell. A PDE inhibitor was added to prevent formatted cAMP from being degraded. The plates were placed into a […] and the glucagon analogues were added. End point data were collected after 6 minutes. An increase in intracellular cAMP was proportional to an increased in calcium concentrations in the cytoplasm. When calcium was bound the dry a fluorescence signal was generated. EC50-values were calculated in Prism5.

T1 sequence (P47871 26-477): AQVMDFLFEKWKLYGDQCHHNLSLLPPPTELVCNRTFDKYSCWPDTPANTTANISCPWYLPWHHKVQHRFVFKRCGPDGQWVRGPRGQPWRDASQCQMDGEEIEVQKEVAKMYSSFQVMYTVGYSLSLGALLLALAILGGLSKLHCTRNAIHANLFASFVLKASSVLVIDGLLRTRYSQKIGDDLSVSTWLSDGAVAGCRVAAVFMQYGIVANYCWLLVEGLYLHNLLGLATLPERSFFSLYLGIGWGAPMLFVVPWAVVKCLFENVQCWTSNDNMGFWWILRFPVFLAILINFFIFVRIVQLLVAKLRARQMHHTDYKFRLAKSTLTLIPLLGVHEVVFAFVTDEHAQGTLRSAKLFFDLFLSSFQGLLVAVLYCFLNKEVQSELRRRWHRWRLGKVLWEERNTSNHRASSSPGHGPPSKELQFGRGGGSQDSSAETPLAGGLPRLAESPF

| SMILES | EC50 [nM] |
| --- | --- |
| CC[C@H](C)[C@H](NC(=O)[C@H](CC(C)C)NC(=O)[C@H](CC(C)C)NC(=O)[C@H](Cc1c[nH]c2ccccc12)NC(=O)[C@H](CCCCNC(=O)CC[C@H](NC(=O)CC[C@H](NC(=O)COCCOCCNC(=O)COCCOCCNC(=O)CC[C@H](NC(=O)CCCCCCCCCCCCCCCCC(=O)O)C(=O)O)C(=O)O)C(=O)O)NC(=O)[C@@H](NC(=O)[C@H](Cc1ccccc1)NC(=O)[C@H](CC(=O)O)NC(=O)[C@H](CCC(N)=O)NC(=O)[C@H](C)NC(=O)[C@H](CCCNC(=N)N)NC(=O)[C@H](CCCNC(=N)N)NC(=O)[C@H](CC(C)C)NC(=O)[C@H](CC(=O)O)NC(=O)[C@H](CC(C)C)NC(=O)[C@H](Cc1ccc(O)cc1)NC(=O)[C@H](CCCNC(=N)N)NC(=O)[C@H](CO)NC(=O)[C@H](Cc1ccc(O)cc1)NC(=O)[C@H](CC(=O)O)NC(=O)[C@H](CO)NC(=O)[C@@H](NC(=O)[C@H](Cc1ccccc1)NC(=O)[C@@H](NC(=O)CNC(=O)[C@H](CCC(N)=O)NC(=O)[C@H](CO)NC(=O)[C@@H](N)Cc1c[nH]cn1)[C@@H](C)O)[C@@H](C)O)C(C)C)C(=O)N[C@H](C(=O)O)[C@@H](C)O [Example 18, N^ε24-[(4S)-4-carboxy-4-[[(4S)-4-carboxy-4-[[2-[2-[2-[[2-[2-[2-[[(4S)-4-carboxy-4-(17-carboxyheptadecanoylamino)butanoyl]amino]ethoxy]ethoxy]acetyl]amino]ethoxy]ethoxy]acetyl]amino]butanoyl]amino]butanoyl]-[Arg^12,Leu^16,Lys^24,Leu^27,Ile^28]-Glucagon] (H-HSQGTFTSDYSRYLDLRRAQDFVK([γGlu-γGlu-AEEA-AEEA-γGlu-C18 diacid])WLLIT-OH) | 1.67 |
| CC(C)C[C@H](NC(=O)[C@H](CC(=O)O)NC(=O)[C@H](CC(C)C)NC(=O)[C@H](Cc1ccc(O)cc1)NC(=O)[C@H](CCCNC(=N)N)NC(=O)[C@H](CO)NC(=O)[C@H](Cc1ccc(O)cc1)NC(=O)[C@H](CC(=O)O)NC(=O)[C@H](CO)NC(=O)[C@@H](NC(=O)[C@H](Cc1ccccc1)NC(=O)[C@@H](NC(=O)CNC(=O)[C@H](CCC(N)=O)NC(=O)[C@H](CO)NC(=O)[C@@H](N)Cc1c[nH]cn1)[C@@H](C)O)[C@@H](C)O)C(=O)N[C@@H](CCCNC(=N)N)C(=O)N[C@@H](CCCNC(=N)N)C(=O)N[C@@H](C)C(=O)N[C@@H](CCC(N)=O)C(=O)N[C@@H](CC(=O)O)C(=O)N[C@@H](Cc1ccccc1)C(=O)N[C@H](C(=O)N[C@@H](CCCCNC(=O)CC[C@H](NC(=O)CC[C@H](NC(=O)COCCOCCNC(=O)COCCOCCNC(=O)CC[C@H](NC(=O)CCCCCCCCCCCCCCCCCCC(=O)O)C(=O)O)C(=O)O)C(=O)O)C(=O)N[C@@H](Cc1c[nH]c2ccccc12)C(=O)N[C@@H](CC(C)C)C(=O)N[C@@H](CC(C)C)C(=O)N[C@@H](CO)C(=O)N[C@H](C(=O)O)[C@@H](C)O)C(C)C [Example 26, N^ε24-[(4S)-4-carboxy-4-[[(4S)-4-carboxy-4-[[2-[2-[2-[[2-[2-[2-[[(4S)-4-carboxy-4-(19-carboxynonadecanoylamino)butanoyl]amino]ethoxy]ethoxy]acetyl]amino]ethoxy]ethoxy]acetyl]amino]butanoyl]amino]butanoyl]-[Arg^12,Leu^16,Lys^24,Leu^27,Ser^28]-Glucagon] (H-HSQGTFTSDYSRYLDLRRAQDFVK([γGlu-γGlu-AEEA-AEEA-γGlu-C20 diacid])WLLST-OH) | 1.07 |
| CC(C)C[C@H](NC(=O)[C@H](CC(=O)O)NC(=O)[C@H](CC(C)C)NC(=O)[C@H](Cc1ccc(O)cc1)NC(=O)[C@H](CCCNC(=N)N)NC(=O)[C@H](CO)NC(=O)[C@H](Cc1ccc(O)cc1)NC(=O)[C@H](CC(=O)O)NC(=O)[C@H](CO)NC(=O)[C@@H](NC(=O)[C@H](Cc1ccccc1)NC(=O)[C@@H](NC(=O)CNC(=O)[C@H](CCC(N)=O)NC(=O)[C@H](CO)NC(=O)[C@@H](N)Cc1c[nH]cn1)[C@@H](C)O)[C@@H](C)O)C(=O)N[C@@H](CCCNC(=N)N)C(=O)N[C@@H](CCCNC(=N)N)C(=O)N[C@@H](C)C(=O)N[C@@H](CCC(N)=O)C(=O)N[C@@H](CC(=O)O)C(=O)N[C@@H](Cc1ccccc1)C(=O)N[C@H](C(=O)N[C@@H](CCCCNC(=O)CC[C@H](NC(=O)COCCOCCNC(=O)COCCOCCNC(=O)CC[C@H](NC(=O)CC[C@H](NC(=O)CCCCCCCCCCCCCCCCC(=O)O)C(=O)O)C(=O)O)C(=O)O)C(=O)N[C@@H](Cc1c[nH]c2ccccc12)C(=O)N[C@@H](CC(C)C)C(=O)N[C@@H](CC(C)C)C(=O)N[C@@H](CO)C(=O)N[C@H](C(=O)O)[C@@H](C)O)C(C)C [Example 27, N^ε24-[(4S)-4-carboxy-4-[[2-[2-[2-[[2-[2-[2-[[(4S)-4-carboxy-4-[[(4S)-4-carboxy-4-(17-carboxyheptadecanoylamino)butanoyl]amino]butanoyl]amino]ethoxy]ethoxy]acetyl]amino]ethoxy]ethoxy]acetyl]amino]butanoyl]-[Arg^12,Leu^16,Lys^24,Leu^27,Ser^28]-Glucagon] (H-HSQGTFTSDYSRYLDLRRAQDFVK([γGlu-AEEA-AEEA-γGlu-γGlu-C18 diacid])WLLST-OH) | 0.91 |
| CC(C)C[C@H](NC(=O)[C@H](CC(=O)O)NC(=O)[C@H](CC(C)C)NC(=O)[C@H](Cc1ccc(O)cc1)NC(=O)[C@H](CCCNC(=N)N)NC(=O)[C@H](CO)NC(=O)[C@H](Cc1ccc(O)cc1)NC(=O)[C@H](CC(=O)O)NC(=O)[C@H](CO)NC(=O)[C@@H](NC(=O)[C@H](Cc1ccccc1)NC(=O)[C@@H](NC(=O)CNC(=O)[C@H](CCC(N)=O)NC(=O)[C@H](CO)NC(=O)[C@@H](N)Cc1c[nH]cn1)[C@@H](C)O)[C@@H](C)O)C(=O)N[C@@H](CCCNC(=N)N)C(=O)N[C@@H](CCCNC(=N)N)C(=O)N[C@@H](C)C(=O)N[C@@H](CCC(N)=O)C(=O)N[C@@H](CC(=O)O)C(=O)N[C@@H](Cc1ccccc1)C(=O)N[C@H](C(=O)N[C@@H](CCCCNC(=O)COCCOCCNC(=O)COCCOCCNC(=O)CC[C@H](NC(=O)CC[C@H](NC(=O)CC[C@H](NC(=O)CCCCCCCCCCCCCCCCC(=O)O)C(=O)O)C(=O)O)C(=O)O)C(=O)N[C@@H](Cc1c[nH]c2ccccc12)C(=O)N[C@@H](CC(C)C)C(=O)N[C@@H](CC(C)C)C(=O)N[C@@H](CO)C(=O)N[C@H](C(=O)O)[C@@H](C)O)C(C)C [Example 28, N^ε24-[2-[2-[2-[[2-[2-[2-[[(4S)-4-carboxy-4-[[(4S)-4-carboxy-4-[[(4S)-4-carboxy-4-(17-carboxyheptadecanoylamino)butanoyl]amino]butanoyl]amino]butanoyl]amino]ethoxy]ethoxy]acetyl]amino]ethoxy]ethoxy]acetyl]-[Arg^12,Leu^16,Lys^24,Leu^27,Ser^28]-Glucagon] (H-HSQGTFTSDYSRYLDLRRAQDFVK([AEEA-AEEA-γGlu-γGlu-γGlu-C18 diacid])WLLST-OH) | 0.1 |
